The test system of data set [1] is ERK1 (Tyr204)/ERK2 (Tyr187) phosphorylation, CXCR4 transduced BCWM.1 cells. The data set can be described thus: ERK phosphorylation by flow cytometry, CXCR4-transduced BCWM.1 cells. It is filed as cell-based. To be noted: wild-type or mutated CXCR4 or empty vector control; Figure S5B. As for the experimental part: Cells (100,000) were seeded in 100 µL starvation medium (RPMI, 1% FCS) and starved for 2 h. 5 µL compound in PBS was added and cells were further incubated for 15 min. Afterwards, 5 µL CXCL12 (100 ng/mL final concentration on cells) was added for 2 min before the reaction was stopped by adding PFA and shifting to 4 °C. After 15 min, medium was removed by centrifugation and cells permeabilized by adding ice cold MetOH for 15 min. Cells were then washed and the first antibody was added (phospho-p44/42 MAPK (Erk1) (Tyr204)/(Erk2) (Tyr187) (D1H6G) mouse mAb (Cell Signaling, Danvers, Massachusetts, USA, #5726) and phospho-Akt (Ser473) (193H12) rabbit mAb (Cell Signaling, #4058)) for 2 h and stained with adequate secondary antibody afterwards. Cells were analyzed by flow cytometry with FACS Cytoflex (Beckman Coulter, Brea, CA, USA). For time-kinetic experiments, fold-stimulation was determined by MFI (stimulated)/MFI (unstimulated) for each time point. For inhibition experiments, MFI from unstimulated cells was subtracted from each point and signal of stimulated cells without inhibitor normalized to 100%.

The subject of data set [2] is WM cells. As to the kind of experiment: Transwell migration of WM cells, general statement. It is filed as cell-based. Particulars: 10 nM CXCL12, 2 h, 37 °C; non-specific migration 3,4%; CellTiter-Glo. As for the experimental part:
10 nM CXCL12 was supplemented to the lower chamber. After 2 h incubation at 37 °C, 5% CO2, cells that had migrated to the lower compartment were analyzed using the CellTiter-Glo Luminescent Cell Viability Assay (Promega, Madison, WI, USA) according to the manufacturer’s instructions. Percentage of specific migration was calculated using the following formula: % migration = ((specific migration-unspecific migration)/total cells) × 100. The average of absolute percentage of non-specific migration was very low in some experiments with 3,4% compared to an average of 81% CXCL12 induced migration.

Data set [3] relates to mitochondrial cytotoxicity. Particulars: cited from earlier work.
The test system of data set [4] is CXCR4 mutant-expressing cells. To be noted: cited from earlier work.
The test system of data set [5] is CXCR7. The arrangement: method as in PMID 25921529. Particulars: cited from earlier work.

Entries after “also recorded” stand apart in the source; their conditions may differ.

For CXCL12: chemokine ligand CXCL12, the “CXCL12 effect on phosphorylation / MAPK signaling” value in data set [1] was “increased upon CXCL12 stimulation; also recorded: increases MAPK signaling in cells expressing CXCR4 wildtype constitutively to the same extent as in CXCR4-mutant cells”. Further, the “CXCL12 induced migration, average” value in data set [2] came to 81%.

For the compound `c1cc(CN2CCCNCCNCCCNCC2)ccc1CN1CCCNCCNCCCNCC1` [AMD3100], the Mitochondrial cytotoxicity entry in data set [3] is on record as “do not exert mitochondrial cytotoxicity, in contrast to AMD3100”. The “Abrogation of CXCL12 rescue from ibrutinib-induced apoptosis” value in data set [4] is “the effect could be abrogated by adding plerixafor”. The “Interaction with CXCR7” value in data set [5] is recorded as “acts as an allosteric agonist of this receptor”.

Values taken from paper PMC7920274, “Targeting of CXCR4 by the Naturally Occurring CXCR4 Antagonist EPI-X4 in Waldenström’s Macroglobulinemia” (Cancers, 2021).
